The results in this text go back to patent US10865435B2, “Method of screening antibacterial compounds as inhibitor of Mfd” (INSTITUT NATIONAL DE LA RECHERCHE AGRONOMIQUE, priority 2016, dated 2020).

The subject of the experiment is Bacillus cereus strain Bc 407. Nature of the experiment: Molecule capacity to inhibit bacterial growth in the presence of artificially produced nitric oxide (cfu plating). In kind it is cell-based. How it is done: Bacteria (Bacillus cereus strain Bc 407) were grown in LB medium until mid exponential growth phase at 37° C. with shaking. Cultures were then diluted to 10^4 cfu/ml in PBS (Phosphate Buffered Saline, Sigma). The molecules to be tested (potential Mfd inhibitors) are added at a concentration of 0 to 1 mM to the bacteria and the bacteria+inhibitors are incubated at room temperature for 1 h without agitation.
Bacteria were then exposed directly to chemically generated NO+ in a cell-free system as described by Miyagi et al. (Miyagi et al., 1997) with modifications. Briefly, 10^4 bacterial cfu (+various concentrations of potential Mfd inhibitors) are incubated in RPMI-1640 medium (Invitrogen) at acidic pH (pH 5.4) either in the absence or in the presence of 1.5 mM sodium nitrite (Walco Pure Chemical Industries Ltd) at 37° C. for 1 h under shaking; under these acidic conditions, NO+ is generated from the sodium nitrite by a chemical reaction (Miyagi et al., 1997).
The bacteria are harvested and plated on agar plates to evaluate bacterial survival. The cfu obtained without nitric oxide stress gives the toxicity value whereas the cfu obtained following nitric oxide stress gives the inhibitor efficacy value. Using this cell free assay, the inhibitor concentration required to decrease by 50% the survival rate of the bacteria (IC50) in the presence of nitric oxide stress compared to untreated bacteria is calculated using the GraphPad PRISM software (version 6.0, GraphPad Software, San Diego, Calif.) with non-linear regression.

In the case of `CN1CC(=O)N2[C@H](c3ccc4c(c3)OCO4)c3[nH]c4ccccc4c3C[C@@H]2C1=O` [tadalafil, (6R-trans)-6-(1,3-benzodioxol-5-yl)-2,3,6,7,12,12a-hexahydro-2-methyl-pyrazino[1′,2′:1,6]pyrido[3,4-b]indole-1,4-dione], the IC50 (1.5 mM sodium nitrite, pH 5.4, 37° C., 1 h, mean of two experiments, read-out: IC50 (concentration required to decrease by 50% the survival rate of the bacteria in the presence of nitric oxide stress compared to untreated bacteria)) stood at 98.7 µM. Also, the “activity on B. cereus survival with nitric oxide (NO) stress” value (with NO stress, at 100 μM) is “activity”. For the same compound, the “activity on B. cereus survival without stress (toxicity)” value (without nitric oxide stress, until 100 μM) is given as “weak activity”.
